# According to ChEMBL document CHEMBL1130365, “4-Sulfonamidoanilide tertiary carbinols: A novel series of potassium channel openers” (Bioorg Med Chem Lett, 1997):
# pIC50: −log10 of the molar value.
# Molecular target: Sulfonylurea receptors; K-ATP channels (Homo sapiens, UniProt O60706+Q09428+Q14654+Q15842)
# Experiment: Compound was measured in vitro for potassium channel opening (PCO) activity
# Assay type: protein-complex assay, Cavia porcellus
row,SMILES,pIC50
1,CC(O)(C(=O)Nc1ccc(S(=O)(=O)N2CCCC2)cc1)C(F)(F)F (racemic),6.06
2,CCN(CC)S(=O)(=O)c1ccc(NC(=O)C(C)(O)C(F)(F)F)cc1 (racemic),6.09
3,CC(O)(C(=O)Nc1ccc(S(=O)(=O)N2CCOCC2)cc1)C(F)(F)F (racemic),5.23
4,CC(O)(C(=O)Nc1ccc(S(N)(=O)=O)cc1)C(F)(F)F (racemic),4.89
5,CC(O)(C(=O)Nc1ccc(-c2nn[nH]n2)cc1)C(F)(F)F (racemic),< 4.52
6,CC(O)(C(=O)Nc1ccc(S(=O)(=O)N(c2ccccc2)c2ccccc2)cc1)C(F)(F)F (racemic),< 4.52
7,CC(O)(C(=O)Nc1ccc([C@@H](O)c2ccccc2)cc1)C(F)(F)F (mixture of isomers),< 4.52
8,CC(O)(C(=O)Nc1ccc([C@H](O)c2ccccc2)cc1)C(F)(F)F (mixture of isomers),< 4.52
9,CC(C)CN(CC(C)C)S(=O)(=O)c1ccc(NC(=O)C(C)(O)C(F)(F)F)cc1 (racemic),< 4.52
10,CN(C)S(=O)(=O)c1ccc(NC(=O)C(C)(O)C(F)(F)F)cc1 (racemic),6.32
11,CC(O)(C(=O)Nc1ccc(Sc2ccccc2)cc1)C(F)(F)F (racemic),< 4.52
12,CC(O)(C(=O)Nc1ccc(S(=O)(=O)N2CCNCC2)cc1)C(F)(F)F (racemic),< 4.52
13,Cn1nnnc1-c1ccc(NC(=O)C(C)(O)C(F)(F)F)cc1 (racemic),4.51
14,CC(O)(C(=O)Nc1ccc(S(=O)(=O)N2CCSCC2)cc1)C(F)(F)F (racemic),5.34
15,CC(O)(C(=O)Nc1ccc(S(=O)(=O)Nc2ccccc2)cc1)C(F)(F)F (racemic),< 4.52
16,CCN(CC)C(=O)c1ccc(NC(=O)C(C)(O)C(F)(F)F)cc1 (racemic),< 4.52
17,CCCN(CCC)S(=O)(=O)c1ccc(NC(=O)C(C)(O)C(F)(F)F)cc1 (racemic),5.19
18,CC(O)(C(=O)Nc1ccc(S(=O)(=O)N2CCCCC2)cc1)C(F)(F)F (racemic),5.03
19,CO/N=C(/c1ccccc1)c1ccc(NC(=O)C(C)(O)C(F)(F)F)cc1 (racemic),< 4.52
20,CCC(C)N(C(C)CC)S(=O)(=O)c1ccc(NC(=O)C(C)(O)C(F)(F)F)cc1 (racemic),< 4.52
21,CC(O)(C(=O)Nc1ccc(/C(=N\O)c2ccccc2)cc1)C(F)(F)F (mixture of isomers),< 4.52
